How the values were obtained:
Assay type in all cases: binding
Conditions in all cases: Compound Concentration 10 µM
panel of 442 kinases [1] = target: T1, panel of 442 kinases (Homo sapiens, UniProt P07333)
T1 construct: purchased KINOMEscan
Text: (§1) We assessed the selectivity of members of this scaffold using the KINOMEscan methodology across a near comprehensive panel of 442 kinases [[18,27]].

panel of 442 kinases [2] = target: T2, panel of 442 kinases (Homo sapiens, UniProt Q13237)
T2 construct: purchased KINOMEscan
T2 sequence (Q13237 1-762): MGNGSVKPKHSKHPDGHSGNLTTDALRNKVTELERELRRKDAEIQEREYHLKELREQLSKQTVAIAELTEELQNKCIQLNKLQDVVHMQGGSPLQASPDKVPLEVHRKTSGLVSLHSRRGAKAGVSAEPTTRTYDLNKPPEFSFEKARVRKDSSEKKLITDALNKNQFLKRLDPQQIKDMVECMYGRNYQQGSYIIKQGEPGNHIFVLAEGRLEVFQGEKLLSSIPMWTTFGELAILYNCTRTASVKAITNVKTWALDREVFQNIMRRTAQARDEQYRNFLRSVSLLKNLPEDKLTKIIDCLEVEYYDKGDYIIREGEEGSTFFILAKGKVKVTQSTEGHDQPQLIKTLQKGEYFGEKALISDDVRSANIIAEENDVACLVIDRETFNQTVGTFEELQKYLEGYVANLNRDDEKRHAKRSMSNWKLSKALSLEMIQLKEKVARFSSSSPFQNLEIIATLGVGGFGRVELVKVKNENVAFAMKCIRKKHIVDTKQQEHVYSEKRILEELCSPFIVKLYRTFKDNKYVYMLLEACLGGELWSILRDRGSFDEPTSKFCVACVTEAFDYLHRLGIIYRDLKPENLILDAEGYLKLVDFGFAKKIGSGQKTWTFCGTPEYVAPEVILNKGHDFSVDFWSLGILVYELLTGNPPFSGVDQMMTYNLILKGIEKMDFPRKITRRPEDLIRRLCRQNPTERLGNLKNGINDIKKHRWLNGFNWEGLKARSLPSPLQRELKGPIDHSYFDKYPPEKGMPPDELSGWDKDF
Text: as §1

panel of 442 kinases [3] = target: T3, panel of 442 kinases (Homo sapiens, UniProt Q8IVW4)
T3 construct: purchased KINOMEscan
Text: as §1

T1 sequence (P07333 20-972): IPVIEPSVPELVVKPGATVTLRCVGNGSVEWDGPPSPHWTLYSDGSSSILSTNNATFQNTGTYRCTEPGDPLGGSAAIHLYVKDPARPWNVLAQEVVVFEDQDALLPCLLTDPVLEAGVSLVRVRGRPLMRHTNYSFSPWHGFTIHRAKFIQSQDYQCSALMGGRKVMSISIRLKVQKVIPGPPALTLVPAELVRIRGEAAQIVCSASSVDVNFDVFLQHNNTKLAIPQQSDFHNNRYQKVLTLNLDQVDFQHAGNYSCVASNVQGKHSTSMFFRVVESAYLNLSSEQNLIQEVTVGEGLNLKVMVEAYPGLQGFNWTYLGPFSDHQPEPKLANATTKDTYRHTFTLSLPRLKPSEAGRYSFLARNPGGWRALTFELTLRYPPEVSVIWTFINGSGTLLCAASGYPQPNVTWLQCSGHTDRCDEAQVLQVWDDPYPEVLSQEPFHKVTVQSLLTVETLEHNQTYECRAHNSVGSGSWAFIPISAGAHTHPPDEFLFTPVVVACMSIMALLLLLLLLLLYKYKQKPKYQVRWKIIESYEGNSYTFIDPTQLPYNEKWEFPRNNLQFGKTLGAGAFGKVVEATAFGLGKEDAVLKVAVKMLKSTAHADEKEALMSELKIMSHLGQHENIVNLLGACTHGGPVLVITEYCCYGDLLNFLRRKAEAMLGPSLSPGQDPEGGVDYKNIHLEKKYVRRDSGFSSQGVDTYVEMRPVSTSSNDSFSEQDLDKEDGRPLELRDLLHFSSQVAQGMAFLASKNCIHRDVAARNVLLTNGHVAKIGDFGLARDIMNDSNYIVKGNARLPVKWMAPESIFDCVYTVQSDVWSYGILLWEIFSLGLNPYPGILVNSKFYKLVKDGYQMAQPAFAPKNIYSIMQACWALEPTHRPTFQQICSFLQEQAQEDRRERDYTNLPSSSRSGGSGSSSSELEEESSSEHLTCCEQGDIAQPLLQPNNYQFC
T3 sequence (Q8IVW4 whole entry): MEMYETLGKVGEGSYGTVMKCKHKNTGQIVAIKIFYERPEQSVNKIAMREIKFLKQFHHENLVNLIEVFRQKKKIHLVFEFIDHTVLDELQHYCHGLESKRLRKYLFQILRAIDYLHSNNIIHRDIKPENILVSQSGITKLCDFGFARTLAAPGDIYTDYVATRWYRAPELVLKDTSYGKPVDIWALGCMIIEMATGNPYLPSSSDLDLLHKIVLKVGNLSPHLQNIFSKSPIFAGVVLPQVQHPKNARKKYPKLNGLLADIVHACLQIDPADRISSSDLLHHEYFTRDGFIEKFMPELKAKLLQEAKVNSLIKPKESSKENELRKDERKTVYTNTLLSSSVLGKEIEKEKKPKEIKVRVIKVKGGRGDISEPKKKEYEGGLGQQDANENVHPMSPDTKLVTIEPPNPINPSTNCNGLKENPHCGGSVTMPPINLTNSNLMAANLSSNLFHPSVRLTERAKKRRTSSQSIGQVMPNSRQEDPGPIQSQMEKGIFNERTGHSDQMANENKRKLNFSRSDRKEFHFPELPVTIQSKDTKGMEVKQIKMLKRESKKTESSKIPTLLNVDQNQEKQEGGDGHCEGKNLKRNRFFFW

| Structure (SMILES) | KINOMEscan: CSF1R (panel of 442 kinases [1]) | KINOMEscan: PRKG2 (panel of 442 kinases [2]) | KINOMEscan: CDKL3 (panel of 442 kinases [3]) |
| --- | --- | --- | --- |
| COc1cc(C(=O)N2CCC(N3CCN(C)CC3)CC2)ccc1Nc1ncc2c(n1)N(C1CCCC1)c1ccccc1C(=O)N2C [Compound 25, 11-cyclopentyl-2-((2-methoxy-4-(4-(4-methylpiperazin-1-yl)piperidine-1-carbonyl)phenyl)amino)-5-methyl-5H-benzo[e]pyrimido[5,4-b][1,4]diazepin-6(11H)-one] | 56 | 98 | 73 |
| CCOc1cc(C(=O)N2CCC(N3CCN(C)CC3)CC2)ccc1Nc1ncc2c(n1)N(C1CCCC1)c1ccccc1C(=O)N2C [Compound 26] | 100 | 100 | 99 |
| COc1cc(C(=O)N2CCC(N3CCN(C)CC3)CC2)ccc1Nc1ncc2c(n1)N1CCc3cccc(c31)C(=O)N2C [Compound 24] | 57 | 98 | 81 |
| COc1cc(C(=O)N2CCC(N3CCN(C)CC3)CC2)ccc1Nc1ncc2c(n1)N(C)c1ccccc1C(=O)N2C [15 (LRRK2-IN-1)] | 98 | 74 | 83 |

From article PMC3914206
